This test deals with 84 genes reported to be linked to cellular aging, epigenetics and senescence. The test can be described thus: qPCR gene array of AASC in transwell culture with YASC. In kind it is cell-based, human. The conditions noted are these: 5 μM manumycin. As for the experimental part: In an embodiment, the methods of the present disclosure further comprise exposure of AASCs to the Intracellular Matrix (ICM) of the YASCs through placement of a transwell culture insert containing YASC into the tissue culture dish chamber. Mobilized PBMCs (1×10^7) from the second subjects are added to the outer well of 12-well transwell cultures containing a […] BD Falcon™ insert. Any membrane insert able to provide a cell-free filtrate to cultures of AASCs may be employed. In parallel, mobilized PBMCs (1×10^7) from the first subjects are added to the inner well of the 12-well plate. Cells may then be cultivated in a suitable media (e.g., RPMI-1640 (Gibco) supplemented with 10% fetal calf serum (FCS) and β-mercaptoethanol (β-ME)) for a time period of the type disclosed herein (e.g., 8-weeks), under standard culture conditions (e.g., 50% media changed every 4 days).
For experiments investigating the contribution of exosomes as the membrane-permeable factors responsible for AASC reprogramming (i.e reprogramming agents), the exosomal inhibitor manumycin A (Sigma-Aldrich) can be added to the culture media at a final concentration of 5 μM at days 0 and 14 of the cultivation period.
AASC reprogramming was carried out using the one-step process depicted in the middle workflow of FIGS. 1 and 2. […]
For orientation: In qPCR the cycle at which signal appears reflects the starting amount.

In the case of `CCCC[C@@H](C)/C=C(C)/C=C(\C)C(=O)NC1=C[C@@](O)(/C=C/C=C/C=C/C(=O)NC2=C(O)CCC2=O)[C@@H]2O[C@@H]2C1=O` [manumycin, -[(1S,5S,6R)-5-hydroxy-5-[(1E,3E,5E)-7-[(2-hydroxy-5-oxo-1-cyclopenten-1-yl)amino]-7-oxo-1,3,5-heptatrien-1-yl]-2-oxo-7-oxabicyclo[4.1.0]hept-3-en-3-yl]-2E,4E,6R-trimethyl,2,4-decadienamide], the “gene expression levels of AASC co-cultured with YASC compared to absence of manumycin” value was “displayed changes in gene expression levels”.

The record behind these values is patent publication US11286463B2, “Reprogramming of aged adult stem cells” (priority 2012, dated 2022).
